Results published in US20220096431A1, “PHARMACEUTICAL COMPOSITION AND METHOD FOR PREVENTING, TREATING AND DIAGNOSING A NEURODEGENERATIVE DISEASE” (BUDDHIST TZU CHI MEDICAL FOUNDATION, priority 2020, published 2022).

Assays:
lnc-CYP3A43-2 = test: Biotin-based pulldown assay with real-time PCR; settings: real-time PCR of miRNA; n=3
From the text: Then, a biotin-based pulldown assay was used to validate this interaction. The result shown in FIG. 6H indicates the lnc-CYP3A43-2 can affect target miR-29b-2-5p (41.84-fold).

[1] = test system: PSEN-1, PSEN-2, Aβ1-42 and NICD in C6-C99 cells; test: Western blotting of amyloid-related proteins in C6-C99 cells; format: cell-based; settings: C6-C99 cells transfected with miR-29b-2-5p mimic, compared with control cells, n=3
[2] = test system: PSEN-1, PSEN-2, Aβ1-42 and NICD in C6-C99 cells; test: as above; format: cell-based; settings: C6-C99 cells transfected with miR-29b-2-5p mimic; compared with control cells; n=3
From the text: FIG. 3B to FIG. 3E are the quantitative results of the Western blotting analysis of PSEN-1, PSEN-2, β-amyloid 1-42 (Aβ1-42) and NICD in FIG. 3A, respectively (p*<0.05, p**<0.01). The C6-C99 cells used in FIGS. 3A to 3E are glioma cells having a fragment of human amyloid precursor protein (APP). This fragment is a peptide fragment with 99 amino acids (APP-C99), which can express large amounts of PSEN-1, PSEN-2, and Aβ 1-42 after activation by cumate.
Western blotting is used to detect the expression levels of amyloid-related proteins, including PSEN-1, PSEN-2, and β-amyloid 1-42 (Aβ1-42), while simultaneously detect the expression level of Notch protein (Notch intracellular domain, NICD), which is an indicator of drug safety. If the Notch protein is not affected, then drug safety is indicated.
APP-C99 was transfected into C6 cells with the C99 peptide through cumate-inducible system activation.

3′-UTR of PSEN-1 = test: Dual luciferase assay with PSEN-1 3′-UTR reporter constructs in SH-SY5Y cells; format: cell-based, human; settings: 50 nM miR-29b-2-5p
Experimental: The relative ratios of Renilla and firefly luciferase activity were measured.
The specificity and inhibitory effect of miRNA-29b-2-5p on the specific sequence of PSEN-1 can be confirmed by a dual luciferase assay. The dual luciferase assay includes two luminescence proteins, namely firefly luciferase (molecular weight 61 kDa, emission wavelength at about 560 nm) isolated from firefly (Photlnus pyralls) and Renilla luciferase (molecular weight 31 kDa, emission wavelength at about 480 nm) isolated from Renilla reniformis, which are combined with the sequence to be analyzed and cloned into a vector for amplification. After transfection into cells, the cells emit luminescence. To investigate the influence of these complementary sites, neuroblastoma cell line (SH-SY5Y) as shown in FIG. 2D is used as the cell model and 2 constructs containing continuous complementary (wild type) and noncomplementary (mutant) target site were designed as shown in FIG. 2E. The constructs were then transfected with a miR-29b-2-5p mimic into the SH-SY5Y cell line. The present disclosure uses three different PSEN-1 sequences for dual luciferase analysis, including the wild-type 3′-UTR sequence of PSEN-1, the site 2 mutant having a mutation at site 2 sequence of PSEN-1 that is predicted to be complementary to miRNA-29b-2-5p and double mutant in which both the site 1 and site 2 sequences, which are the sequences of PSEN-1 predicted to be complementary to miRNA-29b-2-5p, are mutated.

SH-SY5Y = test: Aβ1-42 poisoning experiment in SH-SY5Y cells (MTT); format: cell-based, human; settings: n-butylidenephthalide 100 μM, vitamin C 200 μM, alone or in combination, Aβ1-42 1 μM
From the text: Then, the cell viability is detected by a cell survival test using (3-(4,5-dimethylthiazol-2-yl)-2,5-diphenyltetrazolium bromide (MTT) assay.

Notch signaling = settings: background; cited from earlier work
3xTg AD mice = test: Morris water maze test in AD-3xTg mice; format: in vivo
Experimental: Red dot, starting point of the swim; green dot, end point of the swim.
N=4 for wild-type and 10 mg/kg donepezil-treated 3xTg mice. N=6 for vehicle-treated 3xTg mice, 60 mg/kg n-BP-treated 3xTg mice, and 120 mg/kg n-BP-treated 3xTg mice. *p-value<0.05, **p-value<0.01 (Student's t-test). […] After 4-12 months, the B6 (C57/BL6) control mice have no AP accumulation (Green color).
The mice behavioral experiment using Morris water maze is a classical test to detect short-term memory and complex memory. Through its behavior, it can be determined whether there is a difference in memory after drug treatment. […] Two sessions were conducted on Day 1 as follows: (1) mice were placed in the swimming pool to adapt to the environment for a training duration of 120 seconds; (2) a hidden rest platform was added to the pool at a precise location in the northwest corner of the pool (blue diamond in the east; red circle in the west and yellow triangle in the south as shown in FIG. 7G) and the mice were allowed for to swim in the pool for a duration of another 120 seconds. If the rescue platform was not found by the mouse within the allocated time, the mouse was guided to the platform. The test for finding the rescue platform is carried out for the next four consecutive days, with each session lasting 90 seconds. The result is collected and analyzed.

Molecule: miR-29b-2-5p: mature miRNA-29b-2-5p nucleic acid, sequence cugguuucacaugguggcuuag (SEQ ID NO.: 1); used as mimic (CUGGUUUCACAUGGUGGCUUAG; listed as RNA, chemistry not given here; listed as Homo sapiens)
- miR-29b-2-5p in lnc-CYP3A43-2 pulldown (lnc-CYP3A43-2): 41.84 fold
- Aβ1-42 expression [1]: 48.75%±26.77%
- Aβ1-42 expression ([1]; listed as miRNA-29b-2-5p): decreased
- PSEN1 expression ([1]; listed as miRNA-29b-2-5p): decreased
- PSEN1 expression [2]: 100%±19.31%
- Luminescence of reporter, PSEN-1 double site mutant (3′-UTR of PSEN-1): abolished the inhibitory effect
- Luminescence of reporter, PSEN-1 site 2 mutant (3′-UTR of PSEN-1): abolished the inhibitory effect
- Luminescence of reporter, wild type 3′-UTR of PSEN-1 (3′-UTR of PSEN-1): decreased the expression of the reporter
- Luminescence of reporter, PSEN-1 double site mutant (3′-UTR of PSEN-1; listed as miRNA-29b-5p): no significant difference in the luminescence emitted
- Luminescence of reporter, PSEN-1 site 2 mutant (3′-UTR of PSEN-1; listed as miRNA-29b-5p): no significant difference in the luminescence
- Luminescence of reporter, wild type 3′-UTR of PSEN-1 (3′-UTR of PSEN-1; listed as miRNA-29b-5p): the luminescence emitted was inhibited

Molecule: O=C1O[C@H]([C@@H](O)CO)C(O)=C1O [vitamin C, ascorbic acid, reference compound]
- Cell survival, protection against Aβ1-42 damage (SH-SY5Y): has an effect on increasing cell survival

Molecule: CC(C)[C@H](O)C(=O)N[C@@H](C)C(=O)N[C@@H]1C(=O)N(C)CCc2ccccc21 [LY450139]
- Adverse reactions (Notch signaling): causes skin tumors and differentiation of intestinal epithelial cell
- Effect on Notch signaling (Notch signaling): damages Notch signaling

Molecule: COc1cc2c(cc1OC)C(=O)C(CC1CCN(Cc3ccccc3)CC1)C2 (stereo not shown) [donepezil, reference compound]
- Locating and arriving at the resting platform (3xTg AD mice; 120 mg/kg n-BP, donepezil as positive control): able to quickly locate and arrive at the resting platform
- Time required to find the platform (3xTg AD mice; Day 5, 120 mg/kg n-BP, 10 mg donepezil/kg, vs untreated 3xTg mice): significantly lower
